# Results taken from patent publication US10745365B2, “Luminogenic and fluorogenic compounds and methods to detect molecules or conditions” (Promega Corporation, priority 2005, dated 2020).
# Assays:
# Assay type in all cases: biochemical
# [1] = system: panel of recombinant human P450s; test: Two-step luminescent screen of luciferin derivatives against a panel of recombinant human P450s and HLM; conditions: 50 μM substrate, panel of FIGS. 17-18
# Method: P450s are Supersomes™ purchased from Discovery Labware (BD/Gentest). […] HLM is human liver microsomes.
# 1× substrate concentration: 50 μM.
# The HLM reactions contained […] reaction, except where indicated otherwise. Control insect cell membranes were at 50 μg/50 μL.
# For FIG. 20, the panel of human P450s was screened as described above.
# [2] = system: thermostable luciferase (Luc 146-1H2); test: Residual active thermostable luciferase after reaction with derivative (Steady Glo); conditions: substrate 100; +DTT; sample taken 60 min
# Method: After assembly, the reactions were initiated by addition of 25 μl of the thermostable luciferase stock solution above and mixing the tube contents. A 50 μl sample was immediately removed and placed in a luminometer tube and the light read and the tube then replaced in a tube rack at room temperature. While the light reading was being taken, a 5 μl sample of the remaining reaction (which was kept at room temperature) was diluted into 495 μl of 50 mM BisTris, pH 6.5, 1 mg/ml BSA, 1 mM EDTA prechilled to 4° C. and the tube mixed and placed on ice. The light produced by the samples in the luminometer tubes were re-read at 20, 40, 60, 90 and 120 minutes post enzyme addition. Additional 5 μl samples were taken and diluted as above at 60 and 120 minutes post enzyme addition. Once all these readings and samples were taken, 50 μl of the diluted samples was mixed with 50 μl of Steady Glo in luminometer tubes, the tubes incubated 10 minutes […] then the light produced was read on a Turner TD 20/20 luminometer.
# [3] = biological target: T1, QuantiLum Luciferase (firefly luciferase) (Photinus pyralis, UniProt P08659); test: Residual active QuantiLum luciferase after reaction with derivative (Steady Glo)
# T1 construct: purchased Promega Corporation El 70
# Method: (§1) After producing the solutions in Table 37, the volume of all reactions was adjusted to 990 μl with water. […] While the light reading was being taken, a 10 μl sample of the reaction was diluted to 500 μl with enzyme stop solution (cooled on ice to 4° C.) mixed and placed on ice and a second sample of 90 μl of reaction was added to 10 μl of Gel/HPLC stop and the tube placed at −20° C. A timer was started with the start of the first reaction and the start times of the remaining reactions was noted. At 15, 30, 45 and 60 minutes, each reaction was sampled as above and the light produced in the luminometer tubes was measured. At 7 and 22 minutes, the light produced in the luminometer tubes was read, but the reactions were not sampled.
# After all samples were taken, 50 μl of the sample diluted into enzyme stop solution was mixed with 50 μl of Steady Glo Luciferase Reagent (Promega) and the light produced measured after incubating at room temperature for 10 minutes. This measured the active luciferase in the initial reaction.
# as §1, with “40,” for “37,”, “−200” for “−20°”
# [4] = biological target: T1, QuantiLum Luciferase (firefly luciferase); test: Light emission of QuantiLum firefly luciferase with luciferin derivatives
# Method: Gel and HPLC stop solution. Solid EDTA (free acid) was placed in a beaker with water and the pH of the solution adjusted to pH 7.0. The solution was then adjusted in volume to produce a solution 400 mM in EDTA.
# Enzyme stop solution. A solution was prepared containing 20 mM Bis Tris, pH 6.5, 2 mM EDTA and 1 mg/ml bovine serum albumin.
# Reaction buffer (2×). A solution was made containing 100 mM HEPES buffer, pH 8.0; 10 mM MgCl2.
# DTT stock. Solid DTT (dithiothreitol) was dissolved in water and then adjusted to pH 8.0 with solid sodium hydroxide. The solution was then adjusted in volume to produce a solution 1 M in DTT.
# as §1
# as §1, with “40,” for “37,”, “−200” for “−20°”
# The DTT, Coenzyme A, and QuantiLum stock solutions are the same as those described herein.
# This solution was diluted 1:1 with water to produce an enzyme solution labeled “No addition.” This solution was diluted 1:1 with 400 mM DTT, pH 8.0 to produce a solution labeled+DTT. This solution was diluted 1: 1 with 4 mM Coenzyme A to produce a solution labeled+Co A. Finally, this solution was diluted 1: 1 with a solution having both 4 mM Coenzyme A and 400 mM DTT to produce a solution labeled+Co A & DTT.
# 50 μl samples of these solutions were placed in the wells of luminometer microtiter plates, row A to row G, respectively. Row H of the plates was given 50 μl of water.
# Reactions in these plates were initiated by addition of 50 μl of solution containing QuantiLum luciferase using a 12 channel micropipette. The solutions added to the rows were: columns 1, 5, and 9—no addition solution; columns 2, 6, and 10—+Co A solution; columns 3, 7, and 11—+DTT solution, and; columns 4, 8, and 12—+Co A and DTT solution. After addition of the enzyme solution to the first row on every plate, a timer was started. After addition of the enzyme solution to the last row on each plate, the plate was sealed and read on a Veritas luminometer.
# T1 sequence (P08659 whole entry): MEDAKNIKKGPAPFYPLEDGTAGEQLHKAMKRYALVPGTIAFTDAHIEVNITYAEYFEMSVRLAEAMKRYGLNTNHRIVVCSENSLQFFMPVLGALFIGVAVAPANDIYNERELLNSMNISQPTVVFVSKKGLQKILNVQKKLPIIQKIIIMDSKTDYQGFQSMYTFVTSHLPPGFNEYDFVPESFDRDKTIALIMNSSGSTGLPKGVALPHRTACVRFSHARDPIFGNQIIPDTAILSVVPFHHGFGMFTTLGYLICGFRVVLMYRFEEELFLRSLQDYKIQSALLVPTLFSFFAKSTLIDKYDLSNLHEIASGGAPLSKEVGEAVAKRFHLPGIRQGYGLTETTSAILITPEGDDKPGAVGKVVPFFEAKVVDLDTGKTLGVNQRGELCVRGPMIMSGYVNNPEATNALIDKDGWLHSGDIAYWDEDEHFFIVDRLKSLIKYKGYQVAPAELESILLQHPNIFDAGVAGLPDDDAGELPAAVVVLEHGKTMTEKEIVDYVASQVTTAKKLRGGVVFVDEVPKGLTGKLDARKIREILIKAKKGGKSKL
compound,measurement,setting,value
COc1ccc2nc(C3=NC(C(=O)OCc4cccnc4)CS3)sc2c1 (stereo not shown),P450 enzyme activity / selectivity (words),[1],"preference for 2D6, 1A1 and 1A2"
4-(O-methyl)-6-(O-methyl)-luciferin,P450 enzyme activity / selectivity (words),[1],"enhanced selectivity for 1 A2, 2C8 and 2C9"
4-methyl-6-(O-methyl)-luciferin,P450 enzyme activity / selectivity (words),[1],"enhanced selectivity for 1 A2, 2C8 and 2C9"
O=C(O)[C@H]1CSC(c2nc3ccc(OCc4ccccc4)cc3s2)=N1 [L'in-BE],light value of diluted reaction sample in Steady Glo,[2],962.1
O=C(O)[C@H]1CSC(c2nc3ccc(OCc4ccccc4)cc3s2)=N1 [Luc’in BE],Light reading from residual active enzyme at time 0 min,[3]; +Co A,186.7
same,Light reading from residual active enzyme at time 15 min,[3]; +Co A,179.6
same,Light reading from residual active enzyme at time 30 min,[3]; +Co A,179.4
same,Light reading from residual active enzyme at time 45 min,[3]; +Co A,157.9
same,Light reading from residual active enzyme at time 60 min,[3]; +Co A,161.8
same,Light reading from residual active enzyme at time 0 min,[3]; +DTT,194
same,Light reading from residual active enzyme at time 15 min,[3]; +DTT,233.7
same,Light reading from residual active enzyme at time 30 min,[3]; +DTT,224.7
same,Light reading from residual active enzyme at time 45 min,[3]; +DTT,219.5
same,Light reading from residual active enzyme at time 60 min,[3]; +DTT,226.4
same,Light reading from residual active enzyme at time 0 min,[3]; +EDTA,170
same,Light reading from residual active enzyme at time 15 min,[3]; +EDTA,142.7
same,Light reading from residual active enzyme at time 30 min,[3]; +EDTA,140.4
same,Light reading from residual active enzyme at time 45 min,[3]; +EDTA,141.7
same,Light reading from residual active enzyme at time 60 min,[3]; +EDTA,135.4
same,Light reading from residual active enzyme at time 0 min,[3]; No addition,129.7
same,Light reading from residual active enzyme at time 15 min,[3]; No addition,69.9
same,Light reading from residual active enzyme at time 30 min,[3]; No addition,47.31
same,Light reading from residual active enzyme at time 45 min,[3]; No addition,37.94
same,Light reading from residual active enzyme at time 60 min,[3]; No addition,29.08
same,Light reading from residual active enzyme at time 0 min,[3]; w/o ATP,168.3
same,Light reading from residual active enzyme at time 15 min,[3]; w/o ATP,174.1
same,Light reading from residual active enzyme at time 30 min,[3]; w/o ATP,171.7
same,Light reading from residual active enzyme at time 45 min,[3]; w/o ATP,172.9
same,Light reading from residual active enzyme at time 60 min,[3]; w/o ATP,164
same,Light reading at time 0 min,[4]; +Co A,139.5
same,Light reading at time 7 min,[4]; +Co A,11.92
same,Light reading at time 15 min,[4]; +Co A,10.99
same,Light reading at time 22 min,[4]; +Co A,9.941
same,Light reading at time 30 min,[4]; +Co A,7.379
same,Light reading at time 45 min,[4]; +Co A,7.284
same,Light reading at time 60 min,[4]; +Co A,6.433
same,Light reading at time 0 min,[4]; +DTT,948
same,Light reading at time 7 min,[4]; +DTT,532.8
same,Light reading at time 15 min,[4]; +DTT,417
same,Light reading at time 22 min,[4]; +DTT,369.5
same,Light reading at time 30 min,[4]; +DTT,331.6
same,Light reading at time 45 min,[4]; +DTT,273.5
same,Light reading at time 60 min,[4]; +DTT,226.9
same,Light reading at time 0 min,[4]; +EDTA,1.004
same,Light reading at time 7 min,[4]; +EDTA,0.771
same,Light reading at time 15 min,[4]; +EDTA,0.639
same,Light reading at time 22 min,[4]; +EDTA,0.562
same,Light reading at time 30 min,[4]; +EDTA,0.461
same,Light reading at time 45 min,[4]; +EDTA,0.425
same,Light reading at time 60 min,[4]; +EDTA,0.354
same,Light reading at time 0 min,[4]; No addition,135.2
same,Light reading at time 7 min,[4]; No addition,22.61
same,Light reading at time 15 min,[4]; No addition,12.79
same,Light reading at time 22 min,[4]; No addition,9.256
same,Light reading at time 30 min,[4]; No addition,6.928
same,Light reading at time 45 min,[4]; No addition,4.879
same,Light reading at time 60 min,[4]; No addition,3.311
same,Light reading at time 0 min,[4]; w/o ATP,0.015
same,Light reading at time 7 min,[4]; w/o ATP,0
same,Light reading at time 15 min,[4]; w/o ATP,0.008
same,Light reading at time 22 min,[4]; w/o ATP,0.005
same,Light reading at time 30 min,[4]; w/o ATP,0
same,Light reading at time 45 min,[4]; w/o ATP,0
same,Light reading at time 60 min,[4]; w/o ATP,0.01
COc1ccc2nc(C3=NC(C(=O)O)CS3)sc2c1 (stereo not shown) [Luc’in ME],Light reading from residual active enzyme at time 0 min,[3]; +Co A,163.3
same,Light reading from residual active enzyme at time 15 min,[3]; +Co A,161.8
same,Light reading from residual active enzyme at time 30 min,[3]; +Co A,147.7
same,Light reading from residual active enzyme at time 45 min,[3]; +Co A,144.7
same,Light reading from residual active enzyme at time 60 min,[3]; +Co A,145.6
same,Light reading from residual active enzyme at time 0 min,[3]; +DTT,170
same,Light reading from residual active enzyme at time 15 min,[3]; +DTT,172.3
same,Light reading from residual active enzyme at time 30 min,[3]; +DTT,164.3
same,Light reading from residual active enzyme at time 45 min,[3]; +DTT,161.6
same,Light reading from residual active enzyme at time 60 min,[3]; +DTT,167.6
same,Light reading from residual active enzyme at time 0 min,[3]; +EDTA,150.5
same,Light reading from residual active enzyme at time 15 min,[3]; +EDTA,150
same,Light reading from residual active enzyme at time 30 min,[3]; +EDTA,152.1
same,Light reading from residual active enzyme at time 45 min,[3]; +EDTA,152.8
same,Light reading from residual active enzyme at time 60 min,[3]; +EDTA,151
same,Light reading from residual active enzyme at time 0 min,[3]; No addition,141.7
same,Light reading from residual active enzyme at time 15 min,[3]; No addition,35.4
same,Light reading from residual active enzyme at time 30 min,[3]; No addition,91.82
same,Light reading from residual active enzyme at time 45 min,[3]; No addition,85.72
same,Light reading from residual active enzyme at time 60 min,[3]; No addition,81.76
same,Light reading from residual active enzyme at time 0 min,[3]; w/o ATP,170
same,Light reading from residual active enzyme at time 15 min,[3]; w/o ATP,168.9
same,Light reading from residual active enzyme at time 30 min,[3]; w/o ATP,175.6
same,Light reading from residual active enzyme at time 45 min,[3]; w/o ATP,181.9
same,Light reading from residual active enzyme at time 60 min,[3]; w/o ATP,173.6
same,Light reading at time 0 min,[4]; +Co A,18.31
same,Light reading at time 7 min,[4]; +Co A,2.276
same,Light reading at time 15 min,[4]; +Co A,1.239
same,Light reading at time 22 min,[4]; +Co A,1.178
same,Light reading at time 30 min,[4]; +Co A,1.145
same,Light reading at time 45 min,[4]; +Co A,0.916
same,Light reading at time 60 min,[4]; +Co A,0.714
same,Light reading at time 0 min,[4]; +DTT,38.69
same,Light reading at time 7 min,[4]; +DTT,6.42
same,Light reading at time 15 min,[4]; +DTT,4.073
same,Light reading at time 22 min,[4]; +DTT,3.31
same,Light reading at time 30 min,[4]; +DTT,2.708
same,Light reading at time 45 min,[4]; +DTT,2.202
same,Light reading at time 60 min,[4]; +DTT,1.996
same,Light reading at time 0 min,[4]; +EDTA,1.067
same,Light reading at time 7 min,[4]; +EDTA,0.117
same,Light reading at time 15 min,[4]; +EDTA,0.058
same,Light reading at time 22 min,[4]; +EDTA,0.042
same,Light reading at time 30 min,[4]; +EDTA,0.024
same,Light reading at time 45 min,[4]; +EDTA,0.046
same,Light reading at time 60 min,[4]; +EDTA,0.012
same,Light reading at time 0 min,[4]; No addition,23.46
same,Light reading at time 7 min,[4]; No addition,3.144
same,Light reading at time 15 min,[4]; No addition,1.767
same,Light reading at time 22 min,[4]; No addition,1.317
same,Light reading at time 30 min,[4]; No addition,1.22
same,Light reading at time 45 min,[4]; No addition,0.982
same,Light reading at time 60 min,[4]; No addition,0.851
same,Light reading at time 0 min,[4]; w/o ATP,0
same,Light reading at time 7 min,[4]; w/o ATP,0.017
same,Light reading at time 15 min,[4]; w/o ATP,0.016
same,Light reading at time 22 min,[4]; w/o ATP,0
same,Light reading at time 30 min,[4]; w/o ATP,0
same,Light reading at time 45 min,[4]; w/o ATP,0.017
same,Light reading at time 60 min,[4]; w/o ATP,0.011
